Results reported in patent US6428968B1, “Combined therapy with a chemotherapeutic agent and an oncolytic virus for killing tumor cells in a subject” (The Trustees of the University of Pennsylvania, priority 1999, dated 2002).
Several values for one entry are separate records, joined by “and”; a condition that tells them apart may be missing. Equal values may be shown once.

Legend:
[1] = test system: H460 (large cell carcinoma) cells; experiment: In vitro cell viability assay, H460 cells; type: cell-based, human; details: cell line H460; HSV-1716 at an MOI of 0.1, mitomycin C at 0.1 micromolar
Method: Individual chemotherapeutic agents were then added to selected wells.
Each treatment experiment was performed at least twice.

H460 tumors = experiment: In vivo xenograft flank model; design: species or system SCID mice; details: 22 days after injection of H460 cells
Method: The combined effects of mitomycin C and HSV-1716 using NSCLC tumors was assessed in vivo as follows. Cells of line H460 were implanted subcutaneously in the flanks of severe combined immunodeficient (SCID) mice. […] HSV-1716 was injected directly into individual tumors at a dose of 4×10^6 plaque forming units (pfu) in 200 microliters of medium. Control mice were injected with medium alone. Twenty-four hours later, 0.17 milligrams per kilogram body weight mitomycin C or an equivalent amount of PBS was administered to separate groups of HSV-treated and control mice. Tumor volume was estimated in all mice at regular intervals. Tumor volume in cubic millimeters was estimated using the formula
where TLmm was tumor length in millimeters and TWmm was tumor width in millimeters. Tumor growth curves were generated using the estimated values for tumor volume. After a period of 3-4 weeks, mice were sacrificed and their tumors were weighed.
In order to assess the oncolytic effect of mitomycin C in combination with HSV-1716, a murine xenograft model was used. […] These doses were designated ‘sufficient doses.’ H460 tumor cells were injected into the flanks of SCID mice. […] At that time, about 4×10^6 pfu of HSV-1716 or an equivalent volume of culture medium was injected into individual tumors. […]

HSV-1716 in H460 cells = experiment: One step growth curve, H460 cells (black plaque assay); type: cell-based, herpes simplex virus type 1; details: for burst size of HSV-1716: H460, MOI 0.1
Method: H460 cells were incubated overnight in six-well plates at a density of about 300,000 cells per well under standard culture condition. Following this incubation, the cells were infected with HSV-1716 at an MOI of 0.1 pfu. In a parallel experiment with five different experimental arms, the following procedures were performed. In the first and second arms, the cells were incubated in the presence of 0.1 micromolar mitomycin C or an equivalent additional volume of culture medium. Mediun or medium containing mitomycin C was added to the wells for 3 hours, either immediately before (in the first arm) or immediately following (in the second arm) infection of the cells with HSV-1716. In the other three arms, medium containing 0.1, 1.0, or 3.0 micromolar mitomycin C was added to the wells for 48 hours following infection of the cells with HSV-1716.
Cells were harvested from individual wells 1, 6, 19, 24, or 48 hours following infection. Cells were harvested by scraping cells from the walls of their well into the medium contained within the well. Harvested cells were stored at −80° C. Cell samples were titered by black plaque assay using baby hamster kidney cell (BHK) monolayers as described (Kucharczuk et al., 1997, Cancer Res. 57:466-471).
In order to examine what effect mitomycin C might have on viral replication, one step growth curve experiments were performed. H460 cells were infected with HSV-1716 at an MOI of 0.1, and then 0.1 or 1.0 or 3.0 micromolar mitomycin C was added to the cell culture medium. At selected times, cells were harvested and titered by black plaque assay as described herein. […] Addition of 1.0 or 3.0 micromolar mitomycin C for 48 hours after infection reduced burst size (13.7 and 0.2, respectively).

HSV-1716 in A549 cells = experiment: One step growth curve, A549 cells; type: cell-based, herpes simplex virus type 1; details: cell line A549; low dose mitomycin C (0.1 micromolar)

With `CO[C@@]12[C@H](COC(N)=O)C3=C(C(=O)C(C)=C(N)C3=O)N1C[C@@H]1N[C@@H]12` [mitomycin C] the cell survival [1] was 96.7%, the “final mean tumor burden (tumor weight)” value (H460 tumors; HSV-1716 4×10^6 pfu intratumoral day 7, mitomycin C 0.17 mg/kg i.v. day 8, n=14) was 1.122±0.070 grams and the “reduction of tumor burden relative to the control” value (H460 tumors; HSV-1716 4×10^6 pfu intratumoral, mitomycin C 0.17 mg/kg i.v.) was 20.2% and 21.8%. The “burst size of HSV-1716” value (HSV-1716 in H460 cells; 1.0 micromolar mitomycin C for 48 hours after infection) was 13.7, the “burst size of HSV-1716” value (HSV-1716 in H460 cells; 3.0 micromolar mitomycin C for 48 hours after infection) was 0.2 and the “burst size of HSV-1716” value (HSV-1716 in H460 cells; post-treatment with 0.1 micromolar mitomycin C for 3 hours) was 57.1. The “burst size of HSV-1716” value (HSV-1716 in H460 cells; post-treatment with 0.1 micromolar mitomycin C for 48 hours) was 53.3, the “burst size of HSV-1716” value (HSV-1716 in H460 cells; pre-treatment with 0.1 micromolar mitomycin C for 3 hours) was 42.1 and the “effect on burst size of HSV-1716” value (HSV-1716 in H460 cells; cell line H460, low dose mitomycin C (0.1 micromolar)) was “Neither Augmented nor Reduced”. The “effect on burst size of HSV-1716” value (HSV-1716 in A549 cells) was “Neither Augmented nor Reduced”.
